# PMC6560211, “ApoAI-derived peptide increases glucose tolerance and prevents formation of atherosclerosis in mice” (Diabetologia, 2019)
# Legend:
# [1] = rHDL formation, particle size by DLS; details: 1:100 protein:lipid molar ratio, extruded 100 nm MLVs, 4 days (96 h), 24°C
# Procedure: 1,2-dimyristoyl-sn-glycero-3-phosphocholine (DMPC; Avanti Polar Lipids, Alabaster, AL, USA) was formed into 100 nm multilamellar vesicles (MLV) via extrusion using the LiposoFast system (Avestin, Ottawa, ON, Canada) as previously described. MLV were incubated with RG54 or ApoA-I at the indicated ratios for 4 days at 24°C to form rHDL. The resulting particle sizes were measured by dynamic light scattering (DLS) using a Zetasizer APS (Malvern Instruments, Uppsala, Sweden).
# The reduced initial rate may be due to a more complex binding pattern of the larger number of RG54 peptides needed per formed particle: four to five RG54 molecules (54 amino acids each) are needed to make up the size of full-length ApoA-I (243 amino acids). A qualitative assessment of particle formation was therefore next used to evaluate and compare the sizes of formed rHDL. The hydrodynamic diameters of lipid–protein complexes formed after extended incubation (96 h) of RG54 or ApoA-I with extruded 100 nm MLVs were estimated using DLS.
# ESM Figure 4. Lipid clearance and peptide-lipid complex formation activity of RG54 compared with full-length ApoA-I. […]
# DIO C57BL/6NTac mice = assay: GTT in diet-induced obesity (DIO) mice; assay type: in vivo, mouse; details: for fasting glucose levels / fasting insulin levels / insulin sensitivity as measured by QUICKI: DIO mice, 3 h treatment, i.p.
# Procedure: (§1) Male C57BL/6NTac mice (Taconic, Ejby, Denmark) at 8–9 weeks of age were acclimatised for 1 week on a normal chow diet, then changed to a high-fat diet for 2 weeks (diet-induced obesity; DIO), followed by GTT as indicated. Male Lepr^db (db/db) mice on a BKS background (Taconic) at 5 weeks of age were maintained on a normal chow diet and GTTs were performed at 5.5 and 14 weeks of age as indicated. Blood glucose levels were measured in fresh blood (C57: OneTouch Ultra2, Lifescan, Milpitas, CA, USA; db/db: GlucoSmart Swing, MSP bodmann, Bobingen, Germany) and insulin levels were assayed in serum using ELISA (Mercodia) at the times indicated in ESM Fig. 2. See ESM Methods for more details.
# The effect of RG54 peptide on glucose disposal was investigated in an established insulin-resistant mouse model. DIO mice were fasted for 9 h followed by a single i.p. dose of RG54 (12 mg/kg), ApoA-I (14 mg/kg), liraglutide (0.1 mg/kg), or an equal volume of NaCl solution. After a further 3 h fasting period, GTTs were performed (Fig. 4a,b).
# (§2) Fig. 4 Acute treatment with RG54 improves glucose tolerance during GTTs in three models of type 2 diabetes. Male C57Bl/6 mice fed a high-fat diet for 2 weeks (a–d) or db/db mice at 5.5 (e–h) or 14 (i–l) weeks old were fasted overnight, then treated with a single i.p. injection of NaCl (negative control, 200 μl; C57, n=12; db/db 5.5 weeks, n=6; db/db 14 weeks, n=6), liraglutide (0.1 mg/kg; C57, n=11; db/db 5.5 weeks, n=6; db/db 14 weeks, n=6), ApoA-I (14 mg/kg; C57, n=12; db/db 5.5 weeks, n=6; db/db 14 weeks, n=6) or RG54 (12 mg/kg; C57, n=12; db/db 5.5 weeks, n=6; db/db 14 weeks, n=5). After a further 3 h, mice received an i.p. glucose load (40 mg/mouse for C57; 50 mg/mouse for db/db) followed by blood and plasma collection at the indicated times, and blood glucose (a,e,i) and plasma insulin (b,f,j) concentrations were determined. Total AUC was calculated (mmol/l × min for glucose, pmol/l × min for insulin) and then normalised to the average value of the relevant NaCl control group to give relative AUC (% control) for glucose (c,g,k) and insulin (d,h,l). Values are means ± SEM. *p≤0.05, **p≤0.01, ***p≤0.001 vs NaCl control […]
# We directly compared the i.p. and s.c. injection routes in DIO mice. DIO mice were fasted for 9 h, followed by a single i.p. or s.c. injection of RG54 (12 mg/kg), ApoA-I (14 mg/kg), or an equal volume of NaCl solution. After a further 3 h fasting and incubation period, GTTs were performed. […] Finally, we assessed the dose response of s.c. RG54 to find treatment concentrations with full or partial effects on glycaemic control as compared with our positive control (Fig. 6).
# Male C57Bl/6 mice fed a high-fat diet for 2 weeks were fasted overnight, then treated with a single i.p. or s.c. injection of NaCl (negative control, 200 μl, n=6), ApoA-I (14 mg/kg, n=6) or RG54 (12 mg/kg, n=6). After a further 3 h, all mice received an i.p. glucose load (40 mg/mouse) followed by blood and plasma collection at the indicated times, and blood glucose (a,b) and plasma insulin (d,e) concentrations were determined for all injection routes. Total AUC was calculated (mmol/l × min for glucose, pmol/l × min for insulin) and then normalised to the average value of the relevant NaCl control group to give relative AUC (% control) for glucose (c) and insulin (f). Values are means ± SEM. ***p≤0.001 vs NaCl control […]
# Male C57BL/6NTac mice were purchased from Taconic (Ejby, Denmark) at 8-9 weeks of age, acclimatised for one week on normal chow diet, then changed to a High-Fat Diet (HFD; Research Diets D12492, 60% fat content) for 2 weeks, followed by glucose tolerance testing (GTT) with timings as indicated (ESM Figure 2). Male Leprdb mice (db/db) on BKS background purchased from Taconic (BKS.Cg-m+/+Leprdb/BomTac, Ejby, Denmark) at 5 weeks of age were maintained on normal chow diet and GTTs were performed at 5.5 and 14 weeks of age with timings as indicated (ESM Figure 2). For the GTTs, mice fasted overnight […]
# Lepr db (db/db) mice = assay: GTT in db/db mice; assay type: in vivo, mouse; details: db/db 5.5 weeks
# Procedure: as §1, §2
# We next used type 2 diabetes models with a more advanced phenotype: db/db mice at 5.5 and 14 weeks of age.
# At 14 weeks of age, mice were markedly obese with a mean ± SEM body weight of 55.3 ± 0.6 g. […] One mouse was excluded from RG54 treatment group because of very high residual insulin secretion prior to the experiment.
# Male C57BL/6NTac mice were purchased from Taconic (Ejby, Denmark) at 8-9 weeks of age, acclimatised for one week on normal chow diet, then changed to a High-Fat Diet (HFD; Research Diets D12492, 60% fat content) for 2 weeks, followed by glucose tolerance testing (GTT) with timings as indicated (ESM Figure 2). Male Leprdb mice (db/db) on BKS background purchased from Taconic (BKS.Cg-m+/+Leprdb/BomTac, Ejby, Denmark) at 5 weeks of age were maintained on normal chow diet and GTTs were performed at 5.5 and 14 weeks of age with timings as indicated (ESM Figure 2). For the GTTs, mice fasted overnight (9 h) were injected with the appropriate treatment, and after an additional 3 h given ip glucose (C57: 40 mg/mouse; db/db: 50 mg/mouse) followed by collection of serum samples at the indicated times. Blood glucose levels were measured in fresh blood (C57: OnetouchUltra2, Lifescan; db/db: GlucoSmart Swing, MSP bodmann) and insulin levels were assayed in serum using ELISA (Mercodia). db/db mice were independently randomized to treatments groups for GTT at each time point as no carry over was expected between experiments due to the acute nature of the treatment effects. Primary outcomes were blood glucose and insulin measurements during the GTT. C57BL/6NTac mice were euthanized immediately after each experiment whereas db/db were euthanized immediately after the GTT at 14 weeks of age. […]
# and reproducible clinical symptoms of diabetes than females in these models [5; 6] thus ensuring the reproducibility of clinical symptoms between animals within the study. […]
Compound,lipid-protein complexes formed (DLS frequency plots) [1],fasting glucose levels (DIO C57BL/6NTac mice),fasting insulin levels (DIO C57BL/6NTac mice),insulin sensitivity as measured by QUICKI (DIO C57BL/6NTac mice),"insulin secretion in GTT (DIO C57BL/6NTac mice; route comparison, i.p. injection, RG54 12 mg/kg, ApoA-I 14 mg/kg, n=6)","fasting glucose levels (Lepr db (db/db) mice; 3 h treatment, i.p.)","fasting insulin secretion (Lepr db (db/db) mice; 3 h treatment, i.p.)","insulin sensitivity as measured by QUICKI (Lepr db (db/db) mice; 3 h treatment, i.p.)",insulin secretion at the 15-min time point (Lepr db (db/db) mice; liraglutide 0.1 mg/kg i.p.),overall insulin AUC (Lepr db (db/db) mice; liraglutide 0.1 mg/kg i.p.)
"ApoA-I: Recombinant human ApoA-I, full-length (243 amino acids), used as control",single peaks corresponding to rHDL particles,significantly lowered,no concomitant increase,no change,increased insulin secretion,significantly lowered,no significant changes,no concomitant change,,
"CCCCCCCCCCCCCCCC(=O)N[C@@H](CCC(=O)NCCCC[C@H](NC(=O)[C@H](C)NC(=O)[C@H](C)NC(=O)[C@H](CCC(N)=O)NC(=O)CNC(=O)[C@H](CCC(=O)O)NC(=O)[C@H](CC(C)C)NC(=O)[C@H](Cc1ccc(O)cc1)NC(=O)[C@H](CO)NC(=O)[C@H](CO)NC(=O)[C@@H](NC(=O)[C@H](CC(=O)O)NC(=O)[C@H](CO)NC(=O)[C@@H](NC(=O)[C@H](Cc1ccccc1)NC(=O)[C@@H](NC(=O)CNC(=O)[C@H](CCC(=O)O)NC(=O)[C@H](C)NC(=O)[C@@H](N)Cc1c[nH]cn1)[C@@H](C)O)[C@@H](C)O)C(C)C)C(=O)N[C@@H](CCC(=O)O)C(=O)N[C@@H](Cc1ccccc1)C(=O)N[C@H](C(=O)N[C@@H](C)C(=O)N[C@@H](Cc1c[nH]c2ccccc12)C(=O)N[C@@H](CC(C)C)C(=O)N[C@H](C(=O)N[C@@H](CCCNC(=N)N)C(=O)NCC(=O)N[C@@H](CCCNC(=N)N)C(=O)NCC(=O)O)C(C)C)[C@@H](C)CC)C(=O)O [liraglutide, reference compound]",,significantly lowered,no concomitant increase,no change,,,,,"modest, transient increase",not increased
